The values below are quoted from earlier work in patent publication US20200300859A1, “MODULATING BIOMARKERS TO INCREASE TUMOR IMMUNITY AND IMPROVE THE EFFICACY OF CANCER IMMUNOTHERAPY” (Dana-Farber Cancer Institute, Inc., priority 2017, published 2020).

In the series the test system is osmotic nephrosis. The settings on record: in vivo.

Turning to `CN1C(=O)C(Cc2c[nH]c3ccccc23)NC1=S` (stereo not shown) [Necrostatin-1, 5-(1H-Indol-3-ylmethyl)-3-methyl-2-thioxo-4-imidazolidinone], the osmotic nephrosis result is “prevents”.
